Results taken from US8546343B2, “Aminoglycoside antibiotics targeting bacterial 16S ribosomal RNA” (Eidgenoessische Technische Hochschule Zurich, priority 2007, dated 2013).

How the values were obtained:
Assay type in all cases: cell-based, Mycobacterium smegmatis
[1] = tested on: M. smegmatis ΔrrnB 1408G (16S rRNA position 1408 G, eukaryotic cytosolic ribosomes); assay: MIC, recombinant M. smegmatis with mutant ribosomes 1408G; conditions: M. smegmatis ΔrrnB 1408G mutant ribosomes; 72 h at 37° C.
From the text: (§1) The strain used for introduction/selection of mutational alterations was a genetically modified derivative of Mycobacterium smegmatis carrying a single functional chromosomal rRNA operon (Sander et al. Mol. Microbiol. 1996, 22: 841-848). This strain, termed M. smegmatis rrn^−, allowed for the selection of mutational rRNA gene alterations using a plasmid carrying the rRNA gene with the respective mutational alteration.)
(§2) The rRNA gene carried on the plasmid encodes either the complete rRNA operon (Prammananan et al. Antimicrob. Agents Chemother. 1999, 43: 447-453) or a non-functional rRNA gene fragment of approximately 1.0 kb (Pfister et al. Antimicrob. Agents Chemother. 2003, 47: 1496-1502). PCR-mutagenesis in vitro was used to generate the mutagenized rRNA gene fragment. In the case of a partial rRNA gene fragment the mutagenized rRNA gene fragment was cloned into vectors pMV261 or pMV361 (Sander et al. Mol. Microbiol. 2002, 46: 1295-1304; Pfister et al. Antimicrob. Agents Chemother. 2003, 47: 1496-1502) to result in vectors carrying a partial rRNA gene fragment of approximately 1.0 kb with the mutational alteration introduced. In the case of plasmids carrying the complete rRNA operon the mutagenized rRNA gene fragment obtained by PCR was cloned into vectors pMV361 rRNA or pMV261 rRNA using appropriate restriction sites (Prammananan et al. Antimicrob. Agents Chemother. 1999, 43: 447-453). Vectors pMV361 rRNA and pMV261 rRNA carried a complete copy of the rRNA operon from M. smegmatis (Sander et al. Mol. Microbiol. 1997, 26: 469-480). Introduction of mutations into the plasmid encoded rRNA was confirmed by sequencing.
(§3) The single rRNA allelic derivative of M. smegmatis, i.e. M. smegmatis rrn, was used for transformation of the plasmids. The strain was made electro-competent and transformed according to standard techniques and as described previously (Sander et al. Mol. Microbiol. 1997, 26: 469-484). Following primary selection, the plasmid-encoded mutational rRNA gene alteration was transferred into the single chromosomal rRNA operon by means of RecA-mediated homologous recombination (Prammananan at al. Antimicrob. Agents Chemother. 1999, 43: 447-453). Introduction of the mutational rRNA gene alteration into the single functional chromosomal rRNA operon by gene conversion was confirmed by sequence determination.
(§4) Ribosomal drug susceptibility was studied by determining the minimal inhibitory concentrations, as described in detail in Pfister et al. 2003 and 2005 (see above).
(§5) The recombinants carrying the respective mutational alterations in the functional rRNA operon were colony-purified and subjected to determinations of minimal inhibitory concentrations (MIC) to determine ribosomal drug susceptibility. Cultures from single colonies were grown in LB medium supplemented with 0.05% Tween 80 and used for MIC tests in a microtiter plate format. Starting cultures contained 200 μl of bacterial cells at an optical density of 0.025 at 600 nm, and the respective drug was added in twofold series of dilution.
(§6) Key nucleotides which distinguish the prokaryotic from the eukaryotic decoding site are 16S rRNA positions 1408 (bacterial ribosome: A, eukaryotic cytosolic ribosomes: G) and 1491 (bacterial ribosomes: G, eukaryotic cytosolic ribosomes: A, eukaryotic mitochondrial ribosome: C).

[2] = tested on: M. smegmatis ΔrrnB (bacterial ribosomes); assay: MIC, recombinant M. smegmatis with bacterial (wild-type) ribosomes; conditions: 72 h at 37° C.
From the text: as §1, §2, §3, §4, §5, §6

[3] = tested on: M. smegmatis ΔrrnB 1491C (16S rRNA position 1491 C, eukaryotic mitochondrial ribosome); assay: MIC, recombinant M. smegmatis with mutant ribosomes 1491C; conditions: M. smegmatis ΔrrnB 1491C mutant ribosomes; 72 h at 37° C.
From the text: as §1, §2, §3, §4, §5, §6

[4] = tested on: M. smegmatis ΔrrnB 1491A (16S rRNA position 1491 A, eukaryotic cytosolic ribosomes); assay: MIC, recombinant M. smegmatis with mutant ribosomes 1491A; conditions: M. smegmatis ΔrrnB 1491A mutant ribosomes; 72 h at 37° C.
From the text: as §1, §2, §3, §4, §5, §6

SMILES | minimal inhibitory concentrations ΔrrnB 1408G [1] [µg/mL] | minimal inhibitory concentrations ΔrrnB [2] [µg/mL] | minimal inhibitory concentrations ΔrrnB 1491C [3] | minimal inhibitory concentrations ΔrrnB 1491A [4] [µg/mL]
NC[C@@H]1O[C@H](O[C@H]2[C@@H](O)[C@H](O[C@@H]3[C@@H](O)[C@H](N)C[C@H](N)[C@H]3O[C@H]3O[C@@H]4CO[C@@H](c5ccccc5[N+](=O)[O-])O[C@H]4[C@H](O)[C@H]3N)O[C@@H]2CO)[C@H](N)[C@@H](O)[C@@H]1O [Compound 5.16, 4′,6′-O-o-Nitrobenzylideneparomomycin] | 512 | 4 to 16 | >512 µg/mL | 512
CN(C)c1ccc([C@@H]2OC[C@H]3O[C@H](O[C@H]4[C@H](O[C@@H]5O[C@H](CO)[C@@H](O[C@H]6O[C@@H](CN)[C@@H](O)[C@H](O)[C@H]6N)[C@H]5O)[C@@H](O)[C@H](N)C[C@@H]4N)[C@H](N)[C@@H](O)[C@@H]3O2)cc1 [Compound 5.18, 4′,6′-O-p-Dimethylaminobenzylideneparomomycin] | 256 to 512 | 2 to 4 | >512 µg/mL | 256
NC[C@@H]1O[C@H](O[C@H]2[C@@H](O)[C@H](O[C@@H]3[C@@H](O)[C@H](N)C[C@H](N)[C@H]3O[C@H]3O[C@@H]4CO[C@@H](c5cccc6ccccc56)O[C@H]4[C@H](O)[C@H]3N)O[C@@H]2CO)[C@H](N)[C@@H](O)[C@@H]1O [Compound 5.19, 4′,6′-O-1-Naphthylideneparomomycin] | 512 | 4 to 8 | 256 µg/mL | 256 to 512
NC[C@@H]1O[C@H](O[C@H]2[C@@H](O)[C@H](O[C@@H]3[C@@H](O)[C@H](N)C[C@H](N)[C@H]3O[C@H]3O[C@@H]4COC(c5ccco5)O[C@H]4[C@H](O)[C@H]3N)O[C@@H]2CO)[C@H](N)[C@@H](O)[C@@H]1O (stereo partly shown) [Compound 5.21, 4′,6′-O-2-Furanylideneparomomycin] | >512 | 8 to 16 | >512 µg/mL | >512
NC[C@@H]1O[C@H](O[C@H]2[C@@H](O)[C@H](O[C@@H]3[C@@H](O)[C@H](N)C[C@H](N)[C@H]3O[C@H]3O[C@@H]4COC(c5cccs5)O[C@H]4[C@H](O)[C@H]3N)O[C@@H]2CO)[C@H](N)[C@@H](O)[C@@H]1O (stereo partly shown) [Compound 5.22, 4′,6′-O-2-Thiophenylideneparomomycin] | >512 | 8 to 16 | >512 µg/mL | >512
CC1OC[C@H]2O[C@H](O[C@H]3[C@H](O[C@@H]4O[C@H](CO)[C@@H](O[C@H]5O[C@@H](CN)[C@@H](O)[C@H](O)[C@H]5N)[C@H]4O)[C@@H](O)[C@H](N)C[C@@H]3N)[C@H](N)[C@@H](O)[C@@H]2O1 (stereo partly shown) [Compound 5.23, 4′,6′-O-Ethylideneparomomycin] | >512 | 32 | >512 µg/mL | >512
NC[C@@H]1O[C@H](O[C@H]2[C@@H](O)[C@H](O[C@@H]3[C@@H](O)[C@H](N)C[C@H](N)[C@H]3O[C@H]3O[C@@H]4CO[C@@H](Cc5ccccc5)O[C@H]4[C@H](O)[C@H]3N)O[C@@H]2CO)[C@H](N)[C@@H](O)[C@@H]1O [Compound 5.24] | 256 | 64 | 128 to 256 µg/mL | 256
NC[C@@H]1O[C@H](O[C@H]2[C@@H](O)[C@H](O[C@@H]3[C@@H](O)[C@H](N)C[C@H](N)[C@H]3O[C@H]3O[C@@H]4CO[C@@H](C5CCCCC5)O[C@H]4[C@H](O)[C@H]3N)O[C@@H]2CO)[C@H](N)[C@@H](O)[C@@H]1O [Compound 5.27, 4′,6′-O-Cyclohexylmethylideneparomomycin] | >512 | 32 to 64 | >512 µg/mL | >512
NCC1OC(OC2C(CO)OC(OC3C(O)C(N)CC(N)C3OC3OC(COCc4ccccc4)C(O)C(O)C3N)C2O)C(N)C(O)C1O (stereo not shown) [Compound 15, 6′-O-Benzylparomomycin] | >512 | 32 to 64 | >512 µg/mL | >512
NC[C@@H]1O[C@H](O[C@H]2[C@@H](O)[C@H](O[C@@H]3[C@@H](O)[C@H](N)C[C@H](N)[C@H]3O[C@H]3O[C@H](CO)[C@@H](OCc4ccc(C(F)(F)F)cc4)[C@H](O)[C@H]3N)O[C@@H]2CO)[C@H](N)[C@@H](O)[C@@H]1O [Compound 19b, 4′-p-(trifluoromethyl)benzylparomomycin] | >512 | 8 | ≧512 μg/ml | >512
NC[C@@H]1O[C@H](O[C@H]2[C@@H](O)[C@H](O[C@@H]3[C@@H](O)[C@H](N)C[C@H](N)[C@H]3O[C@H]3O[C@H](CO)[C@@H](OCOCc4ccccc4)[C@H](O)[C@H]3N)O[C@@H]2CO)[C@H](N)[C@@H](O)[C@@H]1O [Compound 19d, 4′-Benzyloxymethylparomomycin] | >512 | 16 | >512 µg/mL | >512
COc1ccc(COC2C(CO)OC(OC3C(N)CC(N)C(O)C3OC3OC(CO)C(OC4OC(CN)C(O)C(O)C4N)C3O)C(N)C2O)cc1 (stereo not shown) [Compound 19e, 4′-p-Methoxybenzylparomomycin] | >512 | 8 | >512 µg/mL | >512
NC[C@@H]1O[C@H](O[C@H]2[C@@H](O)[C@H](O[C@@H]3[C@@H](O)[C@H](N)C[C@H](N)[C@H]3O[C@H]3O[C@H](CN)[C@@H](O)[C@H](O)[C@H]3N)O[C@@H]2CO)[C@H](N)[C@@H](O)[C@@H]1O [Neomycin B, reference compound] | >512 | 0.5 to 1 | 16 to 32 µg/mL | 4
